Laboratory results from patent publication EP0497399A1, “Process for evaluating skin irritancy” (THE PROCTER & GAMBLE COMPANY, priority 1991, dated 1992).
Converted amounts (≈) assume the structure as drawn. Read-outs that look alike come from different tables or passages of the source. Marks after values point to notes of the source that are not given here.

Assays:
[1] = system: HuK/F cultures; assay: N-acetylglucosaminidase release into culture medium (cytotoxicity); format: cell-based, human; details: 48 hours
Procedure: (§1) For each HuK/F experiment, on a 24 well plate, 1 test material is evaluated at 4 concentrations (in quadruplicate wells per each concentration). In addition, 4 wells serve as medium control, and 4 wells as sodium dodecyl sulfate positive control. For each material evaluated, a dose-range finding study is performed at 0.001, 0.01, 0.1 and 1.0% (w/v) concentrations to determine the concentration eliciting minimum and maximum cytotoxicity in the MTT assay of cell viability. Based on the dose-range finding study, a range of test material concentrations is selected to determine the concentration eliciting minimum and maximum cytotoxicity in the MTT assay of cell viability. Based on the dose-range finding study, concentrations are selected at the maximal cytoxicity level and minimum level and at two 1/3 log intervals between these concentrations (e.g., if the maximum cytoxicity was at 1% with no cytotoxicity or cell death at 0.1% the concentrations evaluated subsequently would be 0.1, 0.3, 0.6 and 1%).
(§2) On treatment day, growth medium is aseptically aspirated, and the cell meshes are treated with two ml of test medium per well. Medium alone served as a no treatment control with 0.01% sodium dodecyl sulfate acting as a positive control (n=4 wells/group). All test plates are incubated at 37 °C and 5% carbon dioxide for 4 to 72 hours. Observations are made (e.g. changes in medium color) during the treatment period.
(§3) • 1. Place one untreated, precut mesh (no cells) into one or more wells to determine the background non-specific binding (NSB) of MTT to mesh and to act as absolute blank. In remaining wells place 1 mesh per well of the fibroblast/keratinocyte co-cultures. Add 2 ml of the assay medium which is supplied with the test kit. (Marrow-Tech supplies a medium). • 2. Remove medium from each well and add 2 ml/well of test agent diluted in assay medium. Refeed untreated control mesh and mesh without cells with assay medium. • 3. Incubate 48 hours at 37 °C in 5%. carbon dioxide atmosphere. • 4. Prepare a solution of 0.5 mg/ml MTT (Sigma Chemical Co. Catalog #M-2128) in assay medium. Centrifuge MTT/medium for 5 minutes at 3000 RPM to pellet undissolved crystals, then prewarm MTT in a 37 °C waterbath. • 5. Remove spent medium. Use 1 ml aliquot to analyze for lactate dehydrogenase and N-acetylglucosaminidase release and glucose; 1 ml can be saved under nitrogen at -70 °C for PGE2 analysis at a later time. • 6. Add 1 ml/well MTT/medium solution. Add medium without MTT to absolute blank well. Incubate cultures at 37 °C, 5% carbon dioxide for 3 hours. • 7. Remove MTT/medium and wash each mesh 2 times with 1 ml Dulbecco's phosphate buffered saline with calcium and magnesium (PBS). About 2-5 minutes each wash. • 8. Remove second PBS wash and add 2 ml isopropanol/well at room temperature 2 hours. This will extract the formazan from mitochondria of cells into the supernatant. (Note: the amount of MTT taken up by a cell culture and subsequently released by solvent extraction is proportional to the number of viable cells within the culture). Remove meshes from test well and stir on shaking vortex mixer. • 9. Transfer 200 microliter aliquots of the blue spent solvent from each well to a 96 well microtiter plate and read absorbance at 540 nm blanking to absolute blank (well not exposed to the MTT). The wells containing the NSB meshes should be subtracted from the test well absorbances before performing calculations below.

[2] = system: HuK/F cultures; assay: Lactate dehydrogenase release into culture medium (cytotoxicity); format: cell-based, human; details: 48 hours
Procedure: as §1, §2, §3

[3] = MTT assay of cell viability in human skin cell co-cultures on nylon mesh; format: cell-based; details: human, huk/f skin cell co-culture
Procedure: (§4) The MTT assay measures the reduction of a tetrazolium dye by electron transport in mitochondria of viable cells, and subsequent intracellular trapping of the formazan product. • 1. […] It is a measure of cell viability, and is performed on all treatment meshes immediately following medium collection. The MTT assay quantitates the reduction and subsequent trapping of a yellow tetrazolium dye which is reduced by the electron transport chain of functional mitochondria to a purple formazan dye. Briefly, MTT (3-[4,5-Dimethylthiazol-2yl]-2,5-diphenyltetrazolium bromide; Sigma Catalog #M-2128) powder is diluted in cell culture medium (0.5 mg./ml.) and pre-warmed to 37 °C before use. One ml of this dye solution is aliquoted onto each mesh, and the meshes are then incubated 3 hours at 37 °C and 5% CO₂. After incubation, the MTT is aspirated, and 2 ml. of pure isopropanol is used to extract the reduced dye for two hours at room temperature. The meshes are removed from the culture well and extraction solvent mixed by stirring before aliquoting for absorbance readings. The absorbance of each extract is read at 540 nm on a Biotek EL-312 (96 well) spectrophotometer. • 2.

[4] = system: HuF cells; format: cell-based, human
Procedure: Human neonatal fibroblasts are grown in Dulbecco's Modified Eagles Medium (DMEM) supplemented with 10% Fetal Bovine Serum (FBS) (provided by Marrow-Tech). This maintenance medium is the same formulation as described for the above co-cultures with the substitution of 10% FBS for the 2% Ultroser-G medium. Twenty-four hours prior to treatment fibroblasts are trypsinized (Gibco, Trypsin EDTA, Catalog #610-5200AG) by placing 2 ml of 0.25% trypsin over PBS washed cells. After about 1 minute the trypsin is aspirated and cells observed microscopically for rounding up and release from the culture dish. […]
In preliminary experiments with HuK/F co-cultures, two vital dye assays measuring cell viability can be used. […] The MTT assay quantitates the reduction and subsequent trapping of a yellow tetrazolium dye which is reduced by the electron transport chain of functional mitochondria to a purple formazan dye. […] The meshes are removed from the culture well and extraction solvent mixed by stirring before aliquoting for absorbance readings. The absorbance of each extract is read at 540 nm on a Biotek EL-312 (96 well) spectrophotometer. • 2. The Neutral Red Bioassay is described in Borenfreund, E., and Puerner, J., A Simple Quantitative Procedure Using Monolayer Cultures for Cytotoxicity Assays (HTD/NR-90), J. Tissue Cult. […] The cells are evaluated using the standard neutral red assay methodology. […]

[5] = system: HuK cells; format: cell-based, human
Procedure: Human neonatal foreskin keratinocytes are grown in keratinocyte growth medium-KGM complete with epidermal growth factor, insulin, hydrocortisone, anti-microbial agents and supplemented with bovine pituitary extract. (This medium is available from Clonetics). Cultures are maintained in a humidified atmosphere at 37 °C and 5% carbon dioxide throughout the experiment. Four days prior to treatments keratinocytes are trypsinized and subcultured. KGM medium is used and Clonetics reagents and methods used as per their standard protocol. Cells are plated at a density of about 33,000/ well in a 24 well Corning culture plate.
In preliminary experiments with HuK/F co-cultures, two vital dye assays measuring cell viability can be used. […] The MTT assay quantitates the reduction and subsequent trapping of a yellow tetrazolium dye which is reduced by the electron transport chain of functional mitochondria to a purple formazan dye. […] The meshes are removed from the culture well and extraction solvent mixed by stirring before aliquoting for absorbance readings. The absorbance of each extract is read at 540 nm on a Biotek EL-312 (96 well) spectrophotometer. • 2. The Neutral Red Bioassay is described in Borenfreund, E., and Puerner, J., A Simple Quantitative Procedure Using Monolayer Cultures for Cytotoxicity Assays (HTD/NR-90), J. Tissue Cult. […]

[6] = in vitro; details: human, keratinocyte monolayer
Source text: The human keratinocyte monolayer cultures (available from Clonetics) were characterized using a fluorescein-labeled anti-cytokeratin antibody that stained the cytoskeleton of keratinocytes preferentially. This stain confirms that the cells are epithelial in nature.

[7] = system: HuK/F cultures; assay: MTT assay of cell viability in human skin cell co-cultures on nylon mesh; format: cell-based
Procedure: as §4

[8] = human, huk/f skin cell co-culture, 48 h

CC(C)(C)CC(C)(C)c1ccc(OCCOCC[N+](C)(C)Cc2ccccc2)cc1 [Benzethonium Chloride]
N-Acetylglucosaminidase Release ([1]; 0.001 % w/v): 21.20+ U/L | N-Acetylglucosaminidase Release ([1]; 0.003 % w/v): 37.63+* U/L | N-Acetylglucosaminidase Release ([1]; 0.006 % w/v): 37.10+* U/L | N-Acetylglucosaminidase Release ([1]; 0.01 % w/v): 21.73+* U/L | Lactate Dehydrogenase Release ([2]; 0.001 % w/v): 433.5+ U/L | Lactate Dehydrogenase Release ([2]; 0.003 % w/v): 1408.0+* U/L | Lactate Dehydrogenase Release ([2]; 0.006 % w/v): 1344.0+* U/L | Lactate Dehydrogenase Release ([2]; 0.01 % w/v): 1471.5+ U/L

CCCCCCCCCCCC[N+](C)(C)[O-] [C12 DDAO, Dodecyl Dimethyl Amine Oxide]
CC50 at 48 h [3]: 180 µg/mL (≈ 0.785 mM) | N-Acetylglucosaminidase Release ([1]; 0.01 % w/v): 21.15 U/L | N-Acetylglucosaminidase Release ([1]; 0.03 % w/v): 23.53+ U/L | N-Acetylglucosaminidase Release ([1]; 0.06 % w/v): 23.33+ U/L | N-Acetylglucosaminidase Release ([1]; 0.1 % w/v): 26.90+ U/L | Lactate Dehydrogenase Release ([2]; 0.01 % w/v): 116.0+ U/L | Lactate Dehydrogenase Release ([2]; 0.03 % w/v): 1270.0+ U/L | Lactate Dehydrogenase Release ([2]; 0.06 % w/v): 1261.5+ U/L | Lactate Dehydrogenase Release ([2]; 0.1 % w/v): 1196.0+ U/L

CCCCCCCCCCCCOS(=O)(=O)[O-].[Na+] [Sodium Dodecyl Sulfate]
CC50 at 48 h ([3]; concentration w/v giving 50% decrease in MTT dye uptake vs untreated control, HuK/F, 48 hours, read-out: MTT-50 Endpoint (Concentration w/v)): 57 µg/mL | more sensitive than HuK/F cultures (decrease in cell viability, NR assay) [4]: about 10 fold | more sensitive than HuK/F cultures (decrease in cell viability, NR assay) [5]: about 10 fold | fold induction at 48 h [6]: ~2.5

CCCCCCCC/C=C\CCCCCCCC(=O)OCCOCC(OCCO)C1OCC(OCCO)C1OCCO (stereo not drawn) [Tween 80, Polyoxyethylenesorbitan Monooleate]
CC50 at 48 h [3]: 4300 µg/mL (≈ 7.11 mM)

Ammonium Coconut Alkyl Ethoxylate 6.5 Sulfate [NH4CNAE6.5S]
MTT-50 Endpoint (Concentration w/v) [7, 8]: 0.019%

Ammonium Coconut Alkyl Ethoxylate 12 Sulfate [NH4CNAE12S]
MTT-50 Endpoint (Concentration w/v) [7, 8]: 0.025%

Benzalkonium Chloride
MTT-50 Endpoint (Concentration w/v) ([7]; concentration w/v giving 50% decrease in MTT dye uptake vs untreated control, HuK/F, 48 hours): 0.0007% | N-Acetylglucosaminidase Release ([1]; 0.0005 % w/v): 14.95+ U/L | N-Acetylglucosaminidase Release ([1]; 0.001 % w/v): 18.08+* U/L | N-Acetylglucosaminidase Release ([1]; 0.005 % w/v): 19.93+* U/L | N-Acetylglucosaminidase Release ([1]; 0.01 % w/v): 11.98+* U/L | Lactate Dehydrogenase Release ([2]; 0.0005 % w/v): 138.5+ U/L | Lactate Dehydrogenase Release ([2]; 0.001 % w/v): 1032.0+* U/L | Lactate Dehydrogenase Release ([2]; 0.005 % w/v): 1334.5+* U/L | Lactate Dehydrogenase Release ([2]; 0.01 % w/v): 1236.5+* U/L
